In one data set the test system is HT-29 implanted tumor. The experiment in a line: Anti-tumor pharmacodynamics in nude mice bearing HT-29 implanted tumor. To be noted: single tail vein dose.
Data set [1] in a line: Maximal tolerated dosage in healthy mice, single administration. To be noted: HFn-Dox by Dox equivalent. An excerpt:
In the therapy of a cancer patient, the dosage of administration and the number of administration were very important. However, bound by toxic side effects of chemotherapeutic drugs, the therapy of cancer usually became administration in a small amount at a high frequency.

Description for HT-29 implanted tumor: 40 female BALB/c nude mice bearing HT-29 implanted tumor were randomly divided into five groups. When the volume of the implanted tumor was up to about 100 square millimeters, drugs were injected to all of tumor-bearing mice through the tail vein. […] Since the maximal tolerated dosage of mice to free Doxorubicin was 5 mg/kg mouse body weight, the administration dosage of the free Doxorubicin group was 5 mg/kg mouse body weight. […] Measurements of body weights and tumors of mice were three times per week.

Take `COc1cccc2c1C(=O)c1c(O)c3c(c(O)c1C2=O)C[C@@](O)(C(=O)CO)C[C@@H]3O[C@H]1C[C@H](N)[C@H](O)[C@H](C)O1` [free Doxorubicin, Doxorubicin]: in the data set with HT-29 implanted tumor (free Dox 5 mg/kg, Doxil 20 mg/kg), the “average survival time of tumor-bearing mice” value was 18 days. Also, in the data set on HT-29 implanted tumor (free Doxorubicin 5 mg/kg, HFn-Dox and Doxil 20 mg/kg, 40-day window), the tumor growth inhibition result is given as “almost no inhibitory effect”. Moreover, in data set [1], the maximal tolerated dosage turned out to be 5 mg/kg.
